Values joined by “and” are separate entries in the source; they are usually repeats but may differ in a detail not shown here. Equal entries are not always repeated.
Columns and labels:
HBV [1] = test: Combination study with Roferon in HBV infected HepaRG cells: HBV DNA in supernatant by qPCR, CalcuSyn and isobologram analysis; format: cell-based, HBV (genotype D); conditions: for Overall CI: average of CI at 50%, 75% and 90%; for EC50: Hepatitis B virus, HepaRG
Method: HepG2.2.15 cells were cultured in DMEM+Glutamax I medium (Gibco, #21885) supplemented with 10% FBS, 1% Pen/Strep (Gibco, #15140) and G-418 ([…]) and used for production of infectious HBV (genotype D). 90% confluent cells from three T175 flasks were trypsinized and transferred into one collagen coated hyperflask (550 mL). Once the cells were confluent, medium was changed to DMEM+Glutamax I medium with 1% DMSO and 2.5% FBS. Once the cells were slightly over confluent, medium was changed to DMEM/F12+Glutamax I medium (Gibco, #31331) supplemented with MEM non-essential aminoacids (6 mL, Gibco, #11140), P/S (6 mL), sodium pyruvate (6 mL), DMSO (9 mL) and FBS (10 mL) (all per 500 mL medium). Medium was changed every 3 days and supernatants were harvested for 2 weeks. Virus was concentrated from supernatants by PEG precipitation and the titer (genome equivalent (GE)/mL) was determined by qPCR. Briefly, supernatants were mixed with 40% PEG solution at a ratio of 4:1, incubated on a shaker at 4° C. overnight and then centrifuged using 50 mL falcon tubes at 4° C. for one hour at 3724 g (RCF). The supernatant was discarded and the centrifugation step was repeated with new supernatant reusing the tubes until all PEG-precipitated supernatant was processed. The pellets were re-suspended in William's E Medium (Gibco, #22551) at a concentration of 10^7-10^9 genome equivalents (GE) per ml and frozen at −80° C. DNA copy number calculation was based on a standard curve generated from HBV plasmid dilutions with known concentrations.
HepaRG cells (Biopredic International, Saint-Gregoire, France) were cultured in working growth medium (500 mL Willams E Medium with 50 mL HepaRG Growth supplement from Biopredic, 5 mL Glutamax-I (Gibco, #35050) and 5 mL Pen/Strep) for 2 weeks. After 2 weeks, medium was changed to differentiation medium containing 1.8% DMSO (500 mL Willams E Medium with 50 mL HepaRG Growth supplement from Biopredic, 5 mL Pen/Strep, 5 mL Glutamax-I and 9 mL DMSO). Medium was changed twice a week up to 2 weeks. Once fully differentiated, cells were trypsinized and seeded into collagenated 96-well plates (50,000 cells/well in 100 μL) or 24-well plates (300,000 cells/well in 500 μL) in differentiation medium. Cells were cultured at least 5 days in the plates before they were infected with HBV.
The combination experimental results were analyzed using the model described by Craig et al. (Craig J, Duncan I, Whittaker L and Roberts N. (1990). Antiviral synergy between inhibitors of HIV proteinase and reverse transcriptase. Antiviral Chem. Chemother. 4:161-166). EC50 values were obtained for compounds used alone and in combination with others. To relate these two values and describe the degree of synergy/additivity/antagonism between them, the Fractional Inhibitory Concentration (FIC) was first calculated and used to generate isobolograms. Briefly, the FIC is the ratio of the EC50 of the drug in combination to the EC50 of the drug on its own: FIC=ratio[EC50combination:EC50alone]
The Combination Index (CI), obtained by adding the FICs of the two compounds, was then used to describe the effect between compounds used in the combinations. A CI<1 means synergism, a CI=1 means additivity and a CI>1 means antagonism.
Each experiment was performed in at least triplicate and performed independently 3 times. Mean percent inhibition of HBV replication based on DNA copy number was calculated from all experiments and analyzed using the Calcusyn software (CalcuSyn Version 2.11, Biosoft, Cambridge, UK) based on the Loewe additivity model described by Chou and Talalay (Chou T C (2006). Theoretical basis, experimental design, and computerized simulation of synergism and antagonism in drug combination studies. Pharmacol. Rev., 58:621-681). For the CalcuSyn evaluation, data from three diagonal lanes with a constant concentration ratio for the drug combinations of each lane from the checkerboard plate were used (marked in bold in Table 2). […]

HBV [2] = conditions: HBV infected transgenic mouse model or humanized mouse models; cited from earlier work
[3] = tested on: HBV infected HepaRG cells; test: CellTiter-Glo cell viability assay of HBV infected and treated HepaRG cells; format: cell-based; conditions: individual compound at maximum concentration, day 11 post infection
Method: Cell viability of the HBV infected and treated HepaRG cells was determined at day 11 post infection using the CellTiter-Glo® Luminescent Cell Viability Assay (Promega, Cat. No. G7572). 100 μL of CTG reagent were added to each well of the cells, incubated for 10 min and 80 μL of each well were transferred to a new white 96 well plate. Luminescence (0.2 sec) was measured using an Envision reader (PerkinElmer).

[4] = CalcuSyn, HBV DNA, molar ratio 1:0.3
[5] = CalcuSyn, HBV DNA, molar ratio 1:1
[6] = CalcuSyn, HBV DNA, molar ratio 1:3
[7] = individual compound, HBV infected HepaRG cells, HBV DNA, mean of n independent experiments

Nc1ccn([C@@H]2CS[C@H](CO)O2)c(=O)n1 [3TC and 3TC]
CI value at 50% HBV inhibition (HBV [1]; [4]): 1.12 ± 0.24
CI value at 75% HBV inhibition (HBV [1]; [4]): 1.05 ± 0.16
CI value at 90% HBV inhibition (HBV [1]; [4]): 1.02 ± 0.11
CI value at 50% HBV inhibition (HBV [1]; [5]): 0.98 ± 0.12
CI value at 75% HBV inhibition (HBV [1]; [5]): 1.00 ± 0.14
CI value at 90% HBV inhibition (HBV [1]; [5]): 1.06 ± 0.11
CI value at 50% HBV inhibition (HBV [1]; [6]): 1.02 ± 0.22
CI value at 75% HBV inhibition (HBV [1]; [6]): 1.03 ± 0.22
CI value at 90% HBV inhibition (HBV [1]; [6]): 1.08 ± 0.21
Overall CI (HBV [1]; CalcuSyn, molar ratio 1:0.3): 1.06 ± 0.16
Overall CI (HBV [1]; CalcuSyn, molar ratio 1:1): 1.02 ± 0.11
Overall CI (HBV [1]; CalcuSyn, molar ratio 1:3): 1.04 ± 0.19
Assessment of combination effect (HBV [1]; CalcuSyn, based on overall CI values): additivity

COC(=O)C1=C(C)NC(c2ncc(F)cc2F)=N[C@H]1c1ccc(F)cc1Cl [Bay 41-4109]
in vivo efficacy (HBV [2]): demonstrated in vivo efficacy with HBV DNA reduction

COC(=O)C1=C(CN2CCOC[C@H]2C(=O)O)N=C(c2nccs2)N[C@H]1c1ccc(F)cc1Cl [Compound 1, (S)-4-[(R)-6-(2-Chloro-4-fluoro-phenyl)-5-methoxycarbonyl-2-thiazol-2-yl-3,6-dihydro-pyrimidin-4-ylmethyl]-morpholine-3-carboxylic acid]
EC50 (HBV [1]; [7]): 21.2 nM
% cell viability at max concentration ± SD (n) [3]: 96.8 ± 4.2 (3) %

Nc1ccn([C@@H]2CS[C@H](CO)O2)c(=O)n1 [Compound 3TC, Lamivudine]
EC50 (HBV [1]; [7]): 12.9 nM
% cell viability at max concentration ± SD (n) [3]: 86.4 ± 2.6 (3) % and 104.5 ± 2.6 (3) %

CCOC(=O)C1=C(CN2CCN3C(=O)N(CC(C)(C)C(=O)O)C[C@@H]3C2)NC(c2nccs2)=N[C@H]1c1cccc(F)c1C [Compound 4, 3-[(8aS)-7-[[(4S)-5-ethoxycarbonyl-4-(3-fluoro-2-methyl-phenyl)-2-thiazol-2-yl-1,4-dihydropyrimidin-6-yl]methyl]-3-oxo-5,6,8,8a-tetrahydro-1H-imidazo[1,5-a]pyrazin-2-yl]-2,2-dimethyl-propanoic acid]
EC50 (HBV [1]; [7]): 8.7 nM
% cell viability at max concentration ± SD (n) [3]: 96.1 ± 14.5 (3) %

interferon alfa-2a [Roferon]
EC50 ± SD (n) (HBV [1]; [7]): 0.9 IU/mL ± 0.5 (3) and 1.8 IU/ml ± 1.7 (3) IU/mL

Source: patent publication US10596173B2, “Combination therapy of an HBV capsid assembly inhibitor and an interferon” (Hoffmann-La Roche Inc., priority 2015, dated 2020)
